Read-outs that look alike come from different tables or passages of the source.
Tests used:
[1] = target: T1, human pancreatic lipase (hPL) (Homo sapiens, UniProt P16233); test: Fluorescence-based hPL inhibition assay on microfluidic SlipChip (DDAO-ol hydrolysis); assay type: biochemical; settings: for inhibition of hPL-catalyzed DDAO-ol hydrolysis (in words): dose-inhibition curves, Figure 5; for IC50: substrate DDAO-ol 20 μM, hPL 0.25 μg/mL, seven 1:1 gradient concentrations, triplicate, read-out: IC50 against hPL (SlipChip)
T1 sequence (P16233 17-465): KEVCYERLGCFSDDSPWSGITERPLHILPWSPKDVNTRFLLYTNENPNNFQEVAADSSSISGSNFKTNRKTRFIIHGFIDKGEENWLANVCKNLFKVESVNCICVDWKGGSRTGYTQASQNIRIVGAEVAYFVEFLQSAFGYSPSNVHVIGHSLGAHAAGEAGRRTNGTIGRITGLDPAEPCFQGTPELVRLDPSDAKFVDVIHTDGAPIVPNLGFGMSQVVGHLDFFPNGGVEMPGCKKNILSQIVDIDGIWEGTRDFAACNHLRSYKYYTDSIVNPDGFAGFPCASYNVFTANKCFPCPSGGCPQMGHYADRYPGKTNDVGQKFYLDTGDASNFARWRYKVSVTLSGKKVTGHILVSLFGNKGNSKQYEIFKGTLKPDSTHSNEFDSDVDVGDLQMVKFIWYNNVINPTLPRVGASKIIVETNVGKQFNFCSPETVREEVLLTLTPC
Experimental: Fluorescence-based assays were used to determine the residual activities of hPL in the presence of different concentrations of inhibitor, and to calculate the IC50 of the inhibitors. […] Then, the inhibitor at the initial concentration was injected into the P1 fluidic path, followed by injecting DMSO into the P2, P3 and P4 fluidic paths. After sliding the SlipChip as described in Section 2.3 with optimized conditions, seven microchambers containing inhibitors with gradient concentrations were formed. At the same time, the enzyme-substrate system was prepared by mixing 111 μL Tris-HCl (pH 7.4, 25 mM), 80 μL bile salts (0.1 mg/mL, final concentration), 1 μL hPL (dissolved in Tris-HCl buffer, 0.25 μg/mL, final concentration) and 8 μL substrate (DDAO-ol, dissolved in DMSO, 20 μM, final concentration). After pipetting out the residual DMSO in the new path (P5), the prepared enzyme-substrate mixture was immediately injected into the P5 fluidic path. Finally, the top layer was slipped down and to the right, transporting the serial gradient array of inhibitor to the solution of the enzyme-substrate system. […] After 3 min, […] The SlipChip device was then placed under the Olympus IX83 inverted microscope with the same fluorescent condition to obtain the photos of each microchamber. The gray value of the fluorescent photo was analyzed by ImageJ software. The residual activity of hPL was calculated using the following formula: the residual activity (%) = the fluorescence intensity of the test sample/the fluorescence intensity in negative control (DMSO only) × 100%.
All inhibition assays were performed in triplicate (three technical replicates) for each concentration of the inhibitors. IC50 and values were calculated using GraphPad Prism 7.0 (GraphPad Software, Inc., La Jolla, CA, USA).

[2] = target: T1, human pancreatic lipase (hPL); settings: past studies of the authors, cited from earlier work

| IC50 [1] [nM] | Compound | inhibition of hPL-catalyzed DDAO-ol hydrolysis (in words) [1] | IC50 ([2]; read-out: IC50, anti-hPL activity) [nM] | IC50 ([2]; read-out: IC50, inhibitory effect on hPL) [nM] |
| --- | --- | --- | --- | --- |
|  | CCCCCCCCCCC[C@@H](C[C@@H]1OC(=O)[C@H]1CCCCCC)OC(=O)[C@H](CC(C)C)NC=O [Orlistat] | strongly inhibited hPL-catalyzed DDAO-ol hydrolysis in a dose-dependent manner |  |  |
| 8.22 | O=C(OC[C@H]1O[C@@H](OC(=O)c2cc(O)c(O)c(O)c2)[C@H](OC(=O)c2cc(O)c(O)c(O)c2)[C@@H](OC(=O)c2cc(O)c(O)c(O)c2)[C@@H]1OC(=O)c1cc(O)c(O)c(O)c1)c1cc(O)c(O)c(O)c1 [PGG, 1,2,3,4,6-penta-O-galloyl-β-D-glucopyranose] | strongly inhibited hPL-catalyzed DDAO-ol hydrolysis in a dose-dependent manner | 7.59 |  |
| 800 | COc1ccc(-c2cc(=O)c3c(O)cc(O)c(-c4cc(-c5cc(=O)c6c(O)cc(OC)cc6o5)ccc4OC)c3o2)cc1 [sciadopitysin] | strongly inhibited hPL-catalyzed DDAO-ol hydrolysis in a dose-dependent manner |  | 750 |
